Data reported in paper PMC7827014, “Synthetic Transition from Thiourea-Based Compounds to Tetrazole Derivatives: Structure and Biological Evaluation of Synthesized New N-(Furan-2-ylmethyl)-1H-tetrazol-5-amine Derivatives” (Molecules, 2021).
In brackets after ≈: the same amount, converted by molar mass.

Each molecule was assayed on M. tuberculosis INH resistant (Spec. 210) (assay: In vitro antitubercular MIC). Details: Mycobacterium tuberculosis, read-out: Minimal inhibitory concentration.
Format: cell-based

First: Ic1ccc(-n2nnnc2NCc2ccco2)cc1 [Compound 3, N-(furan-2-ylmethyl)-1-(4-iodophenyl)-1H-tetrazol-5-amine]
Second: Clc1ccc(-n2nnnc2NCc2ccco2)cc1 [Compound 8, 1-(4-chlorophenyl)-N-(furan-2-ylmethyl)-1H-tetrazol-5-amine]
The MIC of the first is 2-fold higher: 512 µg/mL (≈ 1390 µM) for the first, 256 µg/mL (≈ 929 µM) for the second.

`Fc1cccc(-n2nnnc2NCc2ccco2)c1` [Compound 9, 1-(3-fluorophenyl)-N-(furan-2-ylmethyl)-1H-tetrazol-5-amine] and `Clc1cccc(-n2nnnc2NCc2ccco2)c1` [Compound 4, 1-(3-chlorophenyl)-N-(furan-2-ylmethyl)-1H-tetrazol-5-amine] are the same in MIC: 256 µg/mL (≈ 987 µM) for the first, 256 µg/mL (≈ 929 µM) for the second.

Compared with `Cc1ccc(Cl)cc1-n1nnnc1NCc1ccco1` [Compound 2, 1-(5-chloro-2-methylphenyl)-N-(furan-2-ylmethyl)-1H-tetrazol-5-amine], `Clc1ccccc1-n1nnnc1NCc1ccco1` [Compound 11, 1-(2-chlorophenyl)-N-(furan-2-ylmethyl)-1H-tetrazol-5-amine] is 2-fold lower in MIC: 512 µg/mL (≈ 1770 µM) for the first, 256 µg/mL (≈ 929 µM) for the second.

Going from `Fc1ccc(-n2nnnc2NCc2ccco2)cc1` [Compound 1, 1-(4-fluorophenyl)-N-(furan-2-ylmethyl)-1H-tetrazol-5-amine] to `Brc1ccc(-n2nnnc2NCc2ccco2)cc1` [Compound 10, 1-(4-bromophenyl)-N-(furan-2-ylmethyl)-1H-tetrazol-5-amine], the MIC rises from 256 µg/mL (≈ 987 µM) to 512 µg/mL (≈ 1600 µM) (2-fold).

`Brc1cccc(-n2nnnc2NCc2ccco2)c1` [Compound 7, 1-(3-bromophenyl)-N-(furan-2-ylmethyl)-1H-tetrazol-5-amine] and `Brc1ccccc1-n1nnnc1NCc1ccco1` [Compound 12, 1-(2-bromophenyl)-N-(furan-2-ylmethyl)-1H-tetrazol-5-amine] are the same in MIC: 256 µg/mL (≈ 800 µM) for the first, 256 µg/mL (≈ 800 µM) for the second.

First: Fc1ccccc1-n1nnnc1NCc1ccco1 [Compound 6, 1-(2-fluorophenyl)-N-(furan-2-ylmethyl)-1H-tetrazol-5-amine]
Second: Clc1ccc(-n2nnnc2NCc2ccco2)cc1Cl [Compound 5, 1-(3,4-dichlorophenyl)-N-(furan-2-ylmethyl)-1H-tetrazol-5-amine]
The MIC of the first is lower: 256 µg/mL (≈ 987 µM) for the first, > 512 µg/mL for the second.

Molecule `NNC(=O)c1ccncc1` [INH, isoniazid, reference compound] has an MIC of 2 µg/mL (≈ 14.6 µM).
